Values quoted from earlier work as cited in patent US11660375B2, “Product and method for the treatment of bioprosthetic tissues” (Epygon, priority 2017, dated 2023).
Read-outs that look alike come from different tables or passages of the source.

How the values were obtained:
[1] = test system: porcine aortic valve cusps; conditions: rat subdermal, 60 days, pretreatment pH 7.4 for 24 hours
[2] = test system: Porcine aortic valve bioprostheses; conditions: sheep, 150 days, leaflet calcium
[3] = test system: pericardium samples pretreated with 0.6% Glutaraldehyde; conditions: after 6 months implantation, juvenile rats, subcutaneous
[4] = oral administration; IPCS, WHO Food Additives Series 32
[5] = at 25° C.

2-hydroxypropyl β-Cyclodextrin [HP p-CD]
toxicity on parenteral administration: don't show any toxicity
toxicity on parenteral administration (listed as 2-hydroxypropyl β-Cyclodextrin): appear to be safe

CCO [60% Ethanol, Ethanol]
calcium level ([1]; listed as 60.0% Ethanol): 28.5±12.0 μg/mg tissue

CCO [80% Ethanol, Ethanol]
Ca [2]: 5.22 ± 2.94
calcium level ([1]; listed as 80.0% Ethanol): 1.87±0.29 μg/mg tissue

CCO [Ethanol]
Ca (porcine aortic cusps): 13.3+/−5.6 μg/mg tissue

OC[C@H]1O[C@H](O[C@H]2[C@H](O)[C@@H](O)[C@@H](OC[C@H]3O[C@@H]4O[C@H]5[C@H](O)[C@@H](O)[C@@H](O[C@H]6[C@H](O)[C@@H](O)[C@@H](O[C@H]7[C@H](O)[C@@H](O)C(O[C@H]8[C@H](O)[C@@H](O)[C@@H](O[C@H]9[C@H](O)[C@@H](O)[C@@H](O[C@H]%10[C@H](O)[C@@H](O)[C@@H](O[C@H]3[C@H](O)[C@H]4O)O[C@@H]%10CO)O[C@@H]9CO)O[C@@H]8CO)O[C@@H]7CO)O[C@@H]6CO)O[C@@H]5CO)O[C@@H]2CO)[C@H](O)[C@@H](O)[C@@H]1O [Maltosyl β-Cyclodextrin]
toxicity on parenteral administration: appear to be safe

CCCCCCCC/C=C\CCCCCCCC(=O)OCCOCC(OCCO)C1OCC(OCCO)C1OCCO (stereo not drawn) [surfactant, Tween 80]
calcium content [3]: 42.9±12.7 μg/mg dry tissue

OC[C@H]1O[C@@H]2O[C@H]3[C@H](O)[C@@H](O)[C@@H](O[C@H]4[C@H](O)[C@@H](O)[C@@H](O[C@H]5[C@H](O)[C@@H](O)[C@@H](O[C@H]6[C@H](O)[C@@H](O)[C@@H](O[C@H]7[C@H](O)[C@@H](O)[C@@H](O[C@H]1[C@H](O)[C@H]2O)O[C@@H]7CO)O[C@@H]6CO)O[C@@H]5CO)O[C@@H]4CO)O[C@@H]3CO [α-Cyclodextrins, α-Cyclodextrin]
toxicity on parenteral administration: don't show any toxicity

OC[C@H]1O[C@@H]2O[C@H]3[C@H](O)[C@@H](O)[C@@H](O[C@H]4[C@H](O)[C@@H](O)[C@@H](O[C@H]5[C@H](O)[C@@H](O)[C@@H](O[C@H]6[C@H](O)[C@@H](O)[C@@H](O[C@H]7[C@H](O)[C@@H](O)[C@@H](O[C@H]8[C@H](O)[C@@H](O)[C@@H](O[C@H]1[C@H](O)[C@H]2O)O[C@@H]8CO)O[C@@H]7CO)O[C@@H]6CO)O[C@@H]5CO)O[C@@H]4CO)O[C@@H]3CO [β-Cyclodextrin]
toxicity on parenteral administration: nephrotoxic
acceptable daily intake [4]: 5 mg/kg of body weight

OC[C@H]1O[C@@H]2O[C@H]3[C@H](O)[C@@H](O)[C@@H](O[C@H]4[C@H](O)[C@@H](O)[C@@H](O[C@H]5[C@H](O)[C@@H](O)[C@@H](O[C@H]6[C@H](O)[C@@H](O)[C@@H](O[C@H]7[C@H](O)[C@@H](O)[C@@H](O[C@H]8[C@H](O)[C@@H](O)[C@@H](O[C@H]9[C@H](O)[C@@H](O)[C@@H](O[C@H]1[C@H](O)[C@H]2O)O[C@@H]9CO)O[C@@H]8CO)O[C@@H]7CO)O[C@@H]6CO)O[C@@H]5CO)O[C@@H]4CO)O[C@@H]3CO [γ-Cyclodextrin]
toxicity on parenteral administration: appear to be safe

Sulfobutyl Ether7 β-Cyclodextrin [SBE7 β-CD]
water solubility [5]: ~70 g/100 ml
toxicity on parenteral administration: appear to be safe

Sulphated β-Cyclodextrin
toxicity on parenteral administration: appear to be safe
